Earlier results as cited in US20250278807A1, “MODERN MONETARY THEORY AND TRANSLATIONAL SCIENTIFIC RESEARCH” (priority 2025, published 2025).
Where two headings read alike, the source gives them in different places.

Tests used:
[1] = tested on: blood glucose
[2] = in vivo
[3] = target: T1, beta amyloid peptide (1-40) aggregates (Homo sapiens, UniProt P05067); details: in vitro, aggregates formed with calcium ions; loss of Thioflavin T fluorescence
T1 construct: beta amyloid peptide (1-40)

[4] = tested on: melanoma tumors
[5] = tested on: other malignant cell cultures; details: in vitro
[6] = tested on: melanoma cell
[7] = tested on: wide variety of cancer cells; details: in vitro
[8] = tested on: wide variety of cancer cells; details: in vivo
[9] = tested on: chronic lumbar radicular pain; details: phase II trials, versus placebo
[10] = tested on: thoracic atheroma; details: administered intraperitoneally, cholesterol-fed rabbits
[11] = in vivo; remark: listed apart in the source

T1 sequence (P05067 672-711 limits assumed): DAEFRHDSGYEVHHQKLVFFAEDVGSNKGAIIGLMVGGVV

In the case of NCCCC[C@H](N)C(=O)O [L-lysine], the “effect on absorption of glucose” value ([1]; concomitant administration of glucose with L-lysine) is listed as “decrease the absorption of glucose”, the oral bioavailability ([1]; in vivo, po) is listed as “well established” and the “effect on blood glucose” value ([1]; oral administration) is listed as “lower blood glucose”.

For O=[14CH][C@H](O)[C@H](O)[C@H](O)CO [D-ribose-1-C^14], the excretion after infusion [2] is given as “excreted unchanged in the urine”.

For O=C(O)CC(O)(CC(=O)O)C(=O)O [citrate], the “dissolution of beta amyloid aggregates” value [3] is given as “can be dissolved”.

For C[C@@H](O)C(=O)O[C@H](C)C(=O)O [DLAD, D-Lactic Acid Dimer], the “inhibition of growth of melanoma tumors” value ([4]; in vivo) is given as “inhibit growth”, the tumoricidal activity ([4]; intralesional application) is given as “dose response tumoricidal activity” and the “inhibition of growth of other malignant cell cultures” value [5] is given as “inhibit growth”. The “inhibition of melanoma cell proliferation” value ([6]; compared to L-lactic acid dimer (P<0.0001)) was “conclusively shown”, the “efficacy at pH 7” value ([6]; pH 7) was “lost efficacy” and the “inhibition of growth of cancer cells” value [7] was “inhibit growth”. The “inhibition of growth of cancer cells” value [8] was “inhibit growth”.

In the case of O=CC[C@@H](O)[C@H](O)[C@H](O)CO [2DG, 2-Deoxy-D-Glucose], the “inhibition of growth of cancer cells” value [7] is listed as “inhibit growth” and the “inhibition of growth of cancer cells” value [8] is listed as “inhibit growth”.

In the case of COc1c([C@H]2[C@H](C(=O)Nc3ccnc(C(N)=O)c3)O[C@@](C)(C(F)(F)F)[C@H]2C)ccc(F)c1F [suzetrigine], the “efficacy in chronic lumbar radicular pain” value [9] is listed as “no better efficacy than placebo”.

In the case of Choline citrate, the “effect on thoracic atheroma” value [10] is given as “decreased thoracic atheroma”.

In the case of CCN(CC)CCOC(=O)c1ccc(N)cc1 [Procaine], the oral bioavailability [11] is listed as “orally bioavailable”.

In the case of O=C([O-])CC(O)(CC(=O)[O-])C(=O)[O-].[Na+].[Na+].[Na+] [sodium citrate], the “effect on thoracic atheroma” value [10] is listed as “decreased thoracic atheroma”.
